Literature values in patent US10961240B2, “Formulations of a compound modulating kinases” (Plexxikon Inc., priority 2017, dated 2021).

Legend:
Hodgkin Lymphoma = details: heavily pretreated patient cohort
mouse melanoma models = details: with tumor-specific CD8 T cells
[1] = test system: neurofibromatosis affected mice
TGCT = details: phase III
microglia = details: sustained after intracerebral hemorrhage

FC(F)(F)c1ccc(CNc2ccc(Cc3c[nH]c4ncc(Cl)cc34)cn2)cn1 [Compound I]
efficacy (Hodgkin Lymphoma): modest efficacy | safety profile (Hodgkin Lymphoma): manageable safety profile | control of tumor outgrowth (mouse melanoma models): strongly promoted the control of tumor outgrowth | bone loss [1]: prevented bone loss | primary endpoint: tumor response measured by tumor size reduction (TGCT): met its primary endpoint | tumor growth (MPNST xenograft; MPNST xenograft): significant suppression of tumor growth | blockade of receptor tyrosine kinases (MPNST xenograft; MPNST xenograft samples): sustained blockade of c-Kit, c-Fms and PDGFRβ | microglia depletion (microglia): effectively depleted microglia
